Test [1] addresses GST-tagged K-Ras mutant / His-tagged hSOS1 (Homo sapiens, UniProt P01116). As to the kind of experiment: HTRF assay, K-Ras mutant / SOS1 interaction. Format: binding. The settings on record: read-out: IC50 against mutant Kras. Summed up:
(§1)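 Tagged proteins: GST-K-Ras (wt or mutant), His-hSOS1; labels anti-GST-Eu/anti-6His-XL665; HEPES pH 7.4 buffer with DTT, BSA, Igepal. Read ≥10 min post-mix at ex 337 nm; IC50 from ratiometric data, duplicates.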

A further test deals with T1, wildtype Kras / hSOS1 (Homo sapiens, UniProt P01116).
T1 construct: made in house; host or cells: E. coli BL21 (DE3)
Kind of test: HTRF assay, wildtype Kras / SOS1 interaction. The test is classed as binding. The settings on record: read-out: IC50 against wildtype Kras. A digest of the protocol: as §1
In general terms: In TR-FRET formats the signal depends on donor and acceptor labels being close together.

[2] abbreviates: compound nos. 102-196, general methodology of example 5.

These results are taken from patent publication US20240254129A1, “HETEROCYCLIC COMPOUNDS AND USES THEREOF” (Kumquat Biosciences Inc., priority 2021, published 2024).

For orientation: IC50 means the concentration that gives 50% inhibition.

Read-outs that look alike come from different tables or passages of the source.

T1 sequence (P01116 1-188 isoform P01116-2): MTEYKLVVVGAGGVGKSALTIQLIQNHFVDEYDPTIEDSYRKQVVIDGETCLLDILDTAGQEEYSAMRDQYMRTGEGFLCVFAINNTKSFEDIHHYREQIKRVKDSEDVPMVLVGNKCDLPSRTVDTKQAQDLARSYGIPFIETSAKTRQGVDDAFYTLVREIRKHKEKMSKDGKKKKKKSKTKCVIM
GST-tagged K-Ras mutant / His-tagged hSOS1, sequence (P01116 whole entry G12D, form open): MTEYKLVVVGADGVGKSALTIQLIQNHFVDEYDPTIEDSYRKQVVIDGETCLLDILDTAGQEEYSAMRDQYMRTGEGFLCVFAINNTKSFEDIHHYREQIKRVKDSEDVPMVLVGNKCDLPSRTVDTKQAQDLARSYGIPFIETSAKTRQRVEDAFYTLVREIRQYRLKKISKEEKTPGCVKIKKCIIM

Turning to `Nc1nc2c(-c3c(Cl)cc4c(N5CCNCC(F)(F)C5)nc(OCc5ccccn5)nc4c3F)cccc2s1` [Compound 139, 4-(6-chloro-4-(6,6-difluoro-1,4-diazepan-1-yl)-8-fluoro-2-(pyridin-2-ylmethoxy)-quinazolin-7-yl)benzo[d]-thiazol-2-amine], the IC50 (in test [1] (setting [2]); at wildtype Kras / hSOS1 (setting [2])) was more than 500 nM each time.

`Cc1ccc2cnn(C)c2c1-c1c(Cl)cc2c(N3CCCCC(F)(F)C3)nc(OC[C@@]34CCCN3C[C@H](F)C4)nc2c1F` [Compound 179, 6-chloro-4-(3,3-difluoro-azepan-1-yl)-7-(1,6-dimethyl-1H-indazol-7-yl)-8-fluoro-2-(((2R,7aS)-2-fluoro-tetrahydro-1H-pyrrolizin-7a(5H)-yl)-methoxy)quinazoline]: the IC50 (in test [1] (setting [2]); at wildtype Kras / hSOS1 (setting [2])) was more than 500 nM in each case.

As for `CN1CCC[C@H]1COc1nc(N2CCCC(NC3CNC3)CC2)c2cc(Cl)c(-c3cccc4sc(N)nc34)c(F)c2n1` (stereo partly drawn) [Compound 554, 4-(4-(4-(azetidin-3-yl-amino)azepan-1-yl)-6-chloro-8-fluoro-2-(((S)-1-methylpyrrolidin-2-yl)-methoxy)quinazolin-7-yl)-benzo[d]thiazol-2-amine], the IC50 (in test [1] (compound nos. 401-703); on wildtype Kras / hSOS1 (compound nos. 401-703)) was more than 500 nM in each case.

With `Oc1cc(-c2c(F)cc3c(N4CC5CCC(C4)N5)nc(OCC45CCCN4CCC5)nc3c2F)c2ccccc2c1` [Compound 669, 4-(4-(3,8-diazabicyclo-[3.2.1]octan-3-yl)-6,8-difluoro-2-((tetrahydro-1H-pyrrolizin-7a(5H)-yl)methoxy)quinazolin-7-yl)naphthalen-2-ol], the IC50 in test [1] (compound nos. 401-703) is less than 500 nM; on wildtype Kras / hSOS1 (compound nos. 401-703), more than 500 nM.

Regarding `Nc1nc2c(-c3c(Cl)cc4c(N5CCCOCC5)nc(OC[C@@]56CCCN5C[C@H](F)C6)nc4c3F)cccc2o1` [Compound 167], the IC50 (in test [1] (setting [2]); on wildtype Kras / hSOS1 (setting [2])) was less than 500 nM in each case.

Consider `Nc1nc2c(-c3c(Cl)cc4c(N5CC6CNC(C6)C5)nc(OC[C@@]56CCCN5C[C@H](F)C6)nc4c3F)ccc(F)c2s1` (stereo partly drawn) [Compound 556, 4-(4-(3,6-diazabicyclo-[3.2.1]octan-3-yl)-6-chloro-8-fluoro-2-(((2R,7aS)-2-fluorotetrahydro-1H-pyrrol-izin-7a(5H)-yl)methoxy)-quinazolin-7-yl)-7-fluoro-benzo[d]thiazol-2-amine], for which the IC50 was less than 500 nM in test [1] (compound nos. 401-703) and more than 500 nM on wildtype Kras / hSOS1 (compound nos. 401-703).

Turning to `Nc1nc2c(-c3c(Cl)cc4c(N5CCNC(=O)CC5)nc(OC[C@@]56CCCN5C[C@H](F)C6)nc4c3F)ccc(F)c2s1` [Compound 604, 1-(7-(2-amino-7-fluoroben-zo[d]thiazol-4-yl)-6-chloro-8-fluoro-2-(((2R,7aS)-2-fluorotetrahydro-1H-pyrrol-izin-7a(5H)-yl)methoxy)-quinazolin-4-yl)-1,4-diazepan-5-one], the IC50 in test [1] (compound nos. 401-703) was less than 500 nM; at wildtype Kras / hSOS1 (compound nos. 401-703), more than 500 nM.

As for `Nc1nc2c(-c3c(Cl)cc4c(N5CCNCC(F)(F)C5)nc(OCC56CCCN5C[C@H](F)C6)nc4c3F)cccc2s1` (stereo partly drawn) [Compound 120, 4-(6-chloro-4-(6,6-difluoro-1,4-diazepan-1-yl)-8-fluoro-2-(((2R)-2-fluorotetrahydro-1H-pyrrolizin-7a(5H)-yl)-methoxy)quinazolin-7-yl)-benzo[d]thiazol-2-amine], the IC50 (in test [1] (setting [2]); on wildtype Kras / hSOS1 (setting [2])) was less than 500 nM throughout.

On to `N#CCN1C2CCC1CN(c1nc(OC[C@@]34CCCN3C[C@H](F)C4)nc3c(F)c(-c4ccc(F)c5sc(N)c(C#N)c45)c(Cl)cc13)C2` [Compound 570, 2-amino-4-(6-chloro-4-((1R,5S)-8-(cyanomethyl)-3,8-diazabicyclo[3.2.1]-octan-3-yl)-8-fluoro-2-(((2R,7aS)-2-fluorotetra-hydro-1H-pyrrolizin-7a(5H)-yl)methoxy)quinazolin-7-yl)-7-fluorobenzo[b]thio-phene-3-carbonitrile], for which the figures for the IC50 (in test [1] (compound nos. 401-703); at wildtype Kras / hSOS1 (compound nos. 401-703)) were less than 500 nM and more than 500 nM, respectively.

For `Oc1cc(-c2cnc3c(N4CC5CCC(C4)N5)nc(OC[C@@]45CCCN4C[C@H](F)C5)nc3c2)c2ccccc2c1` (single isomer, unassigned) [Compound 610], the IC50 (in test [1] (compound nos. 401-703); at wildtype Kras / hSOS1 (compound nos. 401-703)) was more than 500 nM in each case.

`Cc1ccnc(C(C)C)c1-n1c(=O)nc(N2CCNCC(F)(F)C2)c2cc(F)c(-c3cc(O)cc4ccccc34)nc21` [Compound 196, 4-(6,6-difluoro-1,4-diazepan-1-yl)-6-fluoro-7-(3-hydroxynaphthalen-1-yl)-1-(2-isopropyl-4-methyl-pyridin-3-yl)pyrido[2,3-d]-pyrimidin-2(1H)-one]: the IC50 (in test [1] (setting [2]); at wildtype Kras / hSOS1 (setting [2])) was more than 500 nM each time.

Regarding `Nc1nc2c(-c3c(Cl)cc4c(N5[C@@H]6CC[C@H]5CC(F)C6)nc(OC[C@@]56CCCN5C[C@H](F)C6)nc4c3F)ccc(F)c2s1` (stereo partly drawn) [Compound 304, 4-(6-chloro-8-fluoro-4-((1R,3S,5S)-3-fluoro-8-azabicyclo[3.2.1]octan-8-yl)-2-(((2R,7aS)-2-fluoro-tetrahydro-1H-pyrrolizin-7a(5H)-yl)methoxy)quin-azolin-7-yl)-7-fluorobenzo-[d]thiazol-2-amine], the IC50 (in test [1] (compound nos. 301-306); on wildtype Kras / hSOS1 (compound nos. 301-306)) was less than 1500 nM throughout.

In the case of `CN(C)CC1(COc2nc(N3CC4CCC(C3)N4)c3cc(Cl)c(-c4ccc(F)c5sc(N)nc45)c(F)c3n2)CC1` [Compound 523, 4-(4-(3,8-diazabicyclo-[3.2.1]octan-3-yl)-6-chloro-2-((1-((dimethylamino)-methyl)cyclopropyl)meth-oxy)-8-fluoroquinazolin-7-yl)-7-fluorobenzo[d]thiazol-2-amine], the IC50 in test [1] (compound nos. 401-703) is less than 500 nM; on wildtype Kras / hSOS1 (compound nos. 401-703), more than 500 nM.

Regarding `Nc1nc2c(-c3c(Cl)cc4c(N5CC6CCC(C5)N6)nc(OCC56CCCN5CCC6)nc4c3F)cc(Cl)cc2s1` [Compound 615, 4-(4-(3,8-diazabicyclo-[3.2.1]octan-3-yl)-6-chloro-8-fluoro-2-((tetrahydro-1H-pyrrolizin-7a(5H)-yl)meth-oxy)quinazolin-7-yl)-6-chlorobenzo[d]thiazol-2-amine], the IC50 in test [1] (compound nos. 401-703) is less than 500 nM; on wildtype Kras / hSOS1 (compound nos. 401-703) it was more than 500 nM.

For `Nc1nc2c(-c3c(Cl)cc4c(N5CCOCC(F)(F)C5)nc(OCC56CCCN5CCC6)nc4c3F)cccc2s1` [Compound 114, 4-(6-chloro-4-(6,6-difluoro-1,4-oxazepan-4-yl)-8-fluoro-2-((tetrahydro-1H-pyrrolizin-7a(5H)-yl)methoxy)quin-azolin-7-yl)benzo[d]thiazol-2-amine], the half-maximal inhibitory concentration (IC50) (in test [1] (setting [2]); at wildtype Kras / hSOS1 (setting [2])) was less than 500 nM in each case.

In the case of `Cc1ccnc(C(C)C)c1-n1c(=O)nc(N2CCNCC(F)(F)C2)c2cc(F)c(-c3c(O)cccc3F)nc21` [Compound 195, 4-(6,6-difluoro-1,4-diazepan-1-yl)-6-fluoro-7-(2-fluoro-6-hydroxyphenyl)-1-(2-isopropyl-4-methylpyridin-3-yl)pyrido[2,3-d]pyrimidin-2(1H)-one], the half-maximal inhibitory concentration (IC50) (in test [1] (setting [2]); on wildtype Kras / hSOS1 (setting [2])) was more than 500 nM in each case.

On to `Cc1ccc2oc(N)nc2c1-c1c(Cl)cc2c(N3CC4CCC(C3)N4)nc(OC[C@@]34CCCN3C[C@H](F)C4)nc2c1F` [Compound 546, 4-(4-(3,8-diazabicyclo-[3.2.1]octan-3-yl)-6-chloro-8-fluoro-2-(((2R,7aS)-2-fluorotetrahydro-1H-pyrrol-izin-7a(5H)-yl)methoxy)-quinazolin-7-yl)-5-methyl-benzo[d]oxazol-2-amine], for which the IC50 in test [1] (compound nos. 401-703) is less than 500 nM; on wildtype Kras / hSOS1 (compound nos. 401-703), more than 500 nM.

As to `CN1CCC[C@H]1COc1nc(N2CCNCC(F)(F)C2)c2cc(Cl)c(-c3cccc4nc(N)n(C)c34)c(F)c2n1` [Compound 186, 7-(6-chloro-4-(6,6-difluoro-1,4-diazepan-1-yl)-8-fluoro-2-(((S)-1-methylpyrrolidin-2-yl)methoxy)quinazolin-7-yl)-1-methyl-1H-benzo[d]-imidazol-2-amine], the IC50 (in test [1] (setting [2]); on wildtype Kras / hSOS1 (setting [2])) was more than 500 nM in each case.

On to `Nc1nc2c(-c3cc4ncnc(N5CC6CCC(C5)N6)c4cc3Cl)ccc(F)c2s1` [Compound 635, 4-(4-(3,8-diazabicyclo-[3.2.1]octan-3-yl)-6-chloro-quinazolin-7-yl)-7-fluoro-benzo[d]thiazol-2-amine], for which the IC50 (in test [1] (compound nos. 401-703); on wildtype Kras / hSOS1 (compound nos. 401-703)) was more than 500 nM each time.
